Test results published in PubChem BioAssay AID1963420 (Molecular Pharmacology Branch, DTP, NCI, 2024).

Tested on: 494315-158-R-J1-PDC complex spheroid growth, percent test/control
Assay: Anticancer human tumor 494315-158-R-J1-PDC patient-derived soft tissue sarcoma cell line growth inhibition [Asc]
Conditions: for IC50: curve of first compound; for viability, T/C: stronger effect = lower value
Outline: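 Tumor cells were grown as multicellular spheroids with stromal HUVEC and mesenchymal stem cells and treated singly or in combination. Concentrations fell in half-log steps from the clinical Cmax, or from 10 microM where none was known.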
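Also: compound exposure lasted seven days after spheroids formed for three days.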

For Cc1nc(N2CCC3(CC2)COC(C)C3N)c(CO)nc1Sc1ccnc(N)c1Cl (stereo not given) + Cc1c(S(C)(=O)=O)c(-c2cc(F)cc(N3CCN(c4ccc(NS(=O)(=O)c5ccc(NC(CCN6CCC(C(=O)OCCCP(=O)(O)O)CC6)CSc6ccccc6)c(S(=O)(=O)C(F)(F)F)c5)cc4)CC3)c2)c(-c2ccc(Cl)cc2)n1C(C)C, the IC50 (second compound 0.1 µM) was 558 nM, the IC50 (second compound 0.316 µM) was 260 nM and the IC50 (second compound 1 µM) was 107 nM. It also gave an IC50 (second compound 3.16 µM) of less than 9.49 nM, an IC50 (second compound 10 µM) of 194 nM and a viability, T/C (second compound 0.1 µM, first compound 0.00949 µM) of 71.1%. It also gave a viability, T/C (second compound 0.1 µM, first compound 0.03 µM) of 80.7%, a viability, T/C (second compound 0.1 µM, first compound 0.0949 µM) of 69.1% and a viability, T/C (second compound 0.1 µM, first compound 0.3 µM) of 61.6%. For the same molecule, the viability, T/C (second compound 0.1 µM, first compound 0.949 µM) was 40.5%, the viability, T/C (second compound 0.1 µM, first compound 3 µM) was 23.5% and the viability, T/C (second compound 0.316 µM, first compound 0.00949 µM) was 68.3%. It also gave a viability, T/C (second compound 0.316 µM, first compound 0.03 µM) of 70%, a viability, T/C (second compound 0.316 µM, first compound 0.0949 µM) of 51.8% and a viability, T/C (second compound 0.316 µM, first compound 0.3 µM) of 55.2%. For the same molecule, the viability, T/C (second compound 0.316 µM, first compound 0.949 µM) was 30.5%, the viability, T/C (second compound 0.316 µM, first compound 3 µM) was 17.1% and the viability, T/C (second compound 1 µM, first compound 0.00949 µM) was 71.4%. For the same molecule, the viability, T/C (second compound 1 µM, first compound 0.03 µM) was 71%, the viability, T/C (second compound 1 µM, first compound 0.0949 µM) was 49.6% and the viability, T/C (second compound 1 µM, first compound 0.3 µM) was 34.6%. For the same molecule, the viability, T/C (second compound 1 µM, first compound 0.949 µM) was 20.7%, the viability, T/C (second compound 1 µM, first compound 3 µM) was 21% and the viability, T/C (second compound 3.16 µM, first compound 0.00949 µM) was 48.8%. It also gave a viability, T/C (second compound 3.16 µM, first compound 0.03 µM) of 41.2%, a viability, T/C (second compound 3.16 µM, first compound 0.0949 µM) of 43.6% and a viability, T/C (second compound 3.16 µM, first compound 0.3 µM) of 26.4%. It also gave a viability, T/C (second compound 3.16 µM, first compound 0.949 µM) of 22.6%, a viability, T/C (second compound 3.16 µM, first compound 3 µM) of 10.3% and a viability, T/C (second compound 10 µM, first compound 0.00949 µM) of 76.8%. It also gave a viability, T/C (second compound 10 µM, first compound 0.03 µM) of 69.6%, a viability, T/C (second compound 10 µM, first compound 0.0949 µM) of 67.6% and a viability, T/C (second compound 10 µM, first compound 0.3 µM) of 38.5%. It also gave a viability, T/C (second compound 10 µM, first compound 0.949 µM) of 22.1% and a viability, T/C (second compound 10 µM, first compound 3 µM) of 8.76%.
